# Experimental data: US20250326749A1, “COMPOUNDS, COMPOSITIONS, AND METHODS OF USING THEREOF” (Sionna Therapeutics Inc., priority 2022, published 2025)
# Target: T1, ΔF508-CFTR (Homo sapiens, UniProt P13569, DEL508-508)
# T1 construct: expressed in transfected cells; host or cells: CFSMEo- (human CF submucosal gland epithelial cells, ΔF508/Q2X), transiently transfected by nucleofection
# Experiment: ΔF508-CFTR-HRP trafficking assay (cell surface expression of ΔF508-CFTR)
# Type: cell-based
# Details: CFSMEo- cells transiently transfected with ΔF508-CFTR-HRP; test agent 3 μM, 48 h; HRP chemiluminescence
# Method in brief: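 Surface-expressed ΔF508-CFTR measured via extracellular HRP tag: cell-impermeable chemiluminescent substrate, 5 min, signal normalized to 0.3% DMSO vehicle.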
# T1 sequence (P13569 with tags, fused parts or gaps DEL508-508): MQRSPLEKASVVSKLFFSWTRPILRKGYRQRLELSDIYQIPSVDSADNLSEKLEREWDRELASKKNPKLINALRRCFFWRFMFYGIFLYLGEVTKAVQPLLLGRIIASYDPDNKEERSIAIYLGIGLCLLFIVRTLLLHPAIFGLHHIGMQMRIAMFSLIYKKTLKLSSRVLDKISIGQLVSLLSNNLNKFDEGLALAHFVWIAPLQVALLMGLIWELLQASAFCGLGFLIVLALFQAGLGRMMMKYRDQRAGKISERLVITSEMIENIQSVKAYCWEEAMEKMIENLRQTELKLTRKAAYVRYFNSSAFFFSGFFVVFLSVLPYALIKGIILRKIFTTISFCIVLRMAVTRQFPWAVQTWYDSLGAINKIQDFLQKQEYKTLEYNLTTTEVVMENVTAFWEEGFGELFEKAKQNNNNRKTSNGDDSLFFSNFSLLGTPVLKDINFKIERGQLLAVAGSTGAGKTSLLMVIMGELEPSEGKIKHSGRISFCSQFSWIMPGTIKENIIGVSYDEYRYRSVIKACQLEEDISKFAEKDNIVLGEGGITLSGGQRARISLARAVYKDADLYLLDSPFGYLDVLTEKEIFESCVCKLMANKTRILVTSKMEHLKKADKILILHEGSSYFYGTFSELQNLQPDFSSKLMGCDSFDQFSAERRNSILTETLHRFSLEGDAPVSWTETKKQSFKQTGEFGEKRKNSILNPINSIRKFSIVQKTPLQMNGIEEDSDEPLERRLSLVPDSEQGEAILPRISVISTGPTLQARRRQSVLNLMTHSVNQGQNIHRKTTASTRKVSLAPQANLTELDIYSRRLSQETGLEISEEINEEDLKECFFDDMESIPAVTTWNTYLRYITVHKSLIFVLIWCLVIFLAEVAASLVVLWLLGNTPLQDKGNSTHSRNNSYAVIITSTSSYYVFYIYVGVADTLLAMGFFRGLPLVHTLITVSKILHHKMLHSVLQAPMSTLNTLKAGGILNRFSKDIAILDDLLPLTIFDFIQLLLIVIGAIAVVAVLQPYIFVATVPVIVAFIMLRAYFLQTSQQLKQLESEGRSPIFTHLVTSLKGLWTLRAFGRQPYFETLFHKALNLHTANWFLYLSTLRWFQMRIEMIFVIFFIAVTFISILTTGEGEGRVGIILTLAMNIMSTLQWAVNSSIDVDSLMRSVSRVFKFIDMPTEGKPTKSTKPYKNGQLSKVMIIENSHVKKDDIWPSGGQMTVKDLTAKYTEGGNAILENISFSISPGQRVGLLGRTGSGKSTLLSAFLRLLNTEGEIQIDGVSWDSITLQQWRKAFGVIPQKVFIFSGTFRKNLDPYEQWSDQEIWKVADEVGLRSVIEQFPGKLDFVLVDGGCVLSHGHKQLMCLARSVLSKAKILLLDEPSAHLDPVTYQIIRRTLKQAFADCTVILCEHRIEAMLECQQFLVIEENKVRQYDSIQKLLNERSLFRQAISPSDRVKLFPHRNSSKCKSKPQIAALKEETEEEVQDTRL
row,Compound,RLUs: ΔF508-CFTR-HRP trafficking data normalized to the vehicle treated control (0.3% DMSO)
1,"C[C@H](Oc1cc(-n2nc(C(F)(F)F)c3c2C(O[C@H]2CC[C@H](C(=O)O)CC2)CCC3)cnc1F)c1ccc2c(c1)OC(F)(F)O2 (stereo in doubt) [79 (P2), 4-[[(7R)-1-[5-[(1S)-1-(2,2-difluoro-1,3-benzodioxol-5-yl)ethoxy]-6-fluoro-3-pyridyl]-3-(trifluoromethyl)-4,5,6,7-tetrahydroindazol-7-yl]oxy]cyclohexanecarboxylic acid]",A (RLU 5.0 μM-10 μM)
2,"C[C@H](Oc1cc(-n2nc(C(F)(F)F)c3c2C(O[C@H]2CC[C@H](C(=O)O)CC2)CCC3)cc(F)n1)c1ccc2c(c1)OC(F)(F)O2 (stereo in doubt) [80 (P2), 4-[[(7R)-1-[2-[(1S)-1-(2,2-difluoro-1,3-benzodioxol-5-yl)ethoxy]-6-fluoro-4-pyridyl]-3-(trifluoromethyl)-4,5,6,7-tetrahydroindazol-7-yl]oxy]cyclohexanecarboxylic acid]",B (RLU 3.5 μM-5.0 μM)
3,"C[C@H](Oc1cc(-n2nc(C(F)(F)F)c3c2N(Cc2ccc(C(=O)O)cc2)CCC3)ccn1)c1ccc2c(c1)OC(F)(F)O2 [Example 8, 4-[[1-[2-[(1S)-1-(2,2-difluoro-1,3-benzodioxol-5-yl)ethoxy]-4-pyridyl]-3-(trifluoromethyl)-5,6-dihydro-4H-pyrazolo[3,4-b]pyridine-7-yl]methyl]benzoic acid]",B (RLU 3.5 μM-5.0 μM)
4,"CC(Oc1cccc(-n2nc(C(F)(F)F)c3c2N(CC24CC(C(=O)O)(C2)C4)CCC3)c1)c1ccc2c(c1)OC(F)(F)O2 (stereo not drawn) [Example 10, 3-[[1-[3-[1-(2,2-difluoro-1,3-benzodioxol-5-yl)ethoxy]phenyl]-3-(trifluoromethyl)-5,6-dihydro-4H-pyrazolo[3,4-b]pyridine-7-yl]methyl]bicyclo[1.1.1]pentane-1-carboxylic acid]",B (RLU 3.5 μM-5.0 μM)
5,"C[C@H](Oc1cccc(-n2nc(C(F)(F)F)c3c2N(CC24CC(C(=O)O)(C2)C4)CCC3)c1)c1ccc2c(c1)OC(F)(F)O2 [Example 11, 3-[[1-[3-[(1S)-1-(2,2-difluoro-1,3-benzodioxol-5-yl)ethoxy]phenyl]-3-(trifluoromethyl)-5,6-dihydro-4H-pyrazolo[3,4-b]pyridine-7-yl]methyl]bicyclo[1.1.1]pentane-1-carboxylic acid]",A (RLU 5.0 μM-10 μM)
6,"C[C@H](Oc1cncc(-n2nc(C(F)(F)F)c3c2N(C[C@H]2CC[C@H](C(=O)O)CC2)CCC3)c1)c1ccc2c(c1)OC(F)(F)O2 [Example 13, Trans-4-[[1-[5-[(1S)-1-(2,2-difluoro-1,3-benzodioxol-5-yl)ethoxy]-3-pyridyl]-3-(trifluoromethyl)-5,6-dihydro-4H-pyrazolo[3,4-b]pyridine-7-yl]methyl]cyclohexanecarboxylic acid]",B (RLU 3.5 μM-5.0 μM)
7,"C[C@H](Oc1cccc(-n2nc(C(F)(F)F)c3c2N(C(=O)N2CCC(C(=O)O)CC2)CCC3)c1)c1ccc2c(c1)OC(F)(F)O2 [Example 18, 1-[1-[3-[(1S)-1-(2,2-difluoro-1,3-benzodioxol-5-yl)ethoxy]phenyl]-3-(trifluoromethyl)-5,6-dihydro-4H-pyrazolo[3,4-b]pyridine-7-carbonyl]piperidine-4-carboxylic acid]",A (RLU 5.0 μM-10 μM)
8,"CC(Oc1cccc(-n2nc(C(F)(F)F)c3c2C(Oc2ccc(C(=O)O)cc2)CCC3)c1)c1ccc2c(c1)OC(F)(F)O2 (stereo not drawn) [Example 19, 4-[[1-[3-[1-(2,2-difluoro-1,3-benzodioxol-5-yl)ethoxy]phenyl]-3-(trifluoromethyl)-4,5,6,7-tetrahydroindazol-7-yl]oxy]benzoic acid]",B (RLU 3.5 μM-5.0 μM)
9,"O=C(O)c1ccc(OC2CCCc3c(C(F)(F)F)nn(-c4cccc(OCc5ccc6c(c5)OC(F)(F)O6)c4)c32)cc1 (stereo not drawn) [Example 20, 4-[[1-[3-[(2,2-difluoro-1,3-benzodioxol-5-yl)methoxy]phenyl]-3-(trifluoromethyl)-4,5,6,7-tetrahydroindazol-7-yl]oxy]benzoic acid]",B (RLU 3.5 μM-5.0 μM)
10,"C[C@@H](Oc1cc(-n2nc(C(F)(F)F)c3c2C(Oc2ccc(C(=O)O)cc2)CCC3)ccn1)c1ccc2c(c1)OC(F)(F)O2 (stereo partly drawn) [Example 21, 4-[[1-[2-[(1R)-1-(2,2-difluoro-1,3-benzodioxol-5-yl)ethoxy]-4-pyridyl]-3-(trifluoromethyl)-4,5,6,7-tetrahydroindazol-7-yl]oxy]benzoic acid]",A (RLU 5.0 μM-10 μM)
11,"C[C@H](Oc1cc(-n2nc(C(F)(F)F)c3c2C(Oc2ccc(C(=O)O)cc2)CCC3)ccn1)c1ccc2c(c1)OC(F)(F)O2 (stereo partly drawn) [Example 22, 4-[[1-[2-[(1S)-1-(2,2-difluoro-1,3-benzodioxol-5-yl)ethoxy]-4-pyridyl]-3-(trifluoromethyl)-4,5,6,7-tetrahydroindazol-7-yl]oxy]benzoic acid]",B (RLU 3.5 μM-5.0 μM)

# The remaining lines, values ahead:
row,RLUs: ΔF508-CFTR-HRP trafficking data normalized to the vehicle treated control (0.3% DMSO),Compound
1,C (RLU 0.0 μM-3.5 μM),"C[C@H](Oc1cc(-n2nc(C(F)(F)F)c3c2[C@@H](Oc2ccc(-c4nc(=O)o[nH]4)cc2)CCC3)ccc1F)c1ccc2c(c1)OC(F)(F)O2 (single isomer, unassigned) [Example 111]"
2,A (RLU 5.0 μM-10 μM),"C[C@H](Oc1cc(-n2nc(C(F)(F)F)c3c2[C@@H](Oc2ccc(-c4nc(=O)o[nH]4)cc2)CCC3)ccn1)c1ccc2c(c1)OC(F)(F)O2 (single isomer, unassigned) [Example 112]"
3,C (RLU 0.0 μM-3.5 μM),"C[C@H](Oc1cc(-n2nc(C(F)(F)F)c3c2[C@H](NC(=O)C24CC(C(=O)O)(C2)C4)CCC3)ccn1)c1ccc2c(c1)OC(F)(F)O2 (single isomer, unassigned) [Example 113]"
4,C (RLU 0.0 μM-3.5 μM),"C[C@H](Oc1cc(-n2nc(C(F)(F)F)c3c2[C@@H](NC(=O)c2ccc(C(=O)O)cc2)CCC3)ccn1)c1ccc2c(c1)OC(F)(F)O2 (single isomer, unassigned) [Example 114]"
5,A (RLU 5.0 μM-10 μM),"C[C@H](Oc1cccc(-c2nn(CC(F)(F)F)c3c2[C@@H](Oc2ccc(C(=O)O)cc2)CCC3)n1)c1ccc2c(c1)OC(F)(F)O2 (single isomer, unassigned) [Example 126]"
6,A (RLU 5.0 μM-10 μM),"C[C@H](Nc1cc(-c2nn(C3COC3)c3c2[C@@H](Oc2ccc(C(=O)O)cc2)CCC3)ccn1)c1ccc2c(c1)OC(F)(F)O2 (single isomer, unassigned) [Example 127]"
7,B (RLU 3.5 μM-5.0 μM),"CC(C)n1nc(-c2ccnc(N[C@@H](C)c3ccc4c(c3)OC(F)(F)O4)c2)c2c1CCC[C@@H]2Oc1ccc(C(=O)O)cc1 (single isomer, unassigned) [Example 128]"
8,B (RLU 3.5 μM-5.0 μM),"C[C@H](Nc1cc(-c2nn(CC(F)(F)F)c3c2[C@@H](Oc2ccc(C(=O)O)cc2)CCC3)ccn1)c1ccc2c(c1)OC(F)(F)O2 (single isomer, unassigned) [Example 129]"
9,B (RLU 3.5 μM-5.0 μM),"CC(Oc1cc(-n2nc(C(F)(F)F)c3c2C(OC24CC(C(=O)O)(C2)C4)CCC3)ccn1)c1cc2c(cn1)OC(F)(F)O2 (stereo in doubt) [Example 46, 3-[[1-[2-[(1R)-1-(2,2-difluoro-[1,3]dioxolo[4,5-c]pyridine-6-yl)ethoxy]-4-pyridyl]-3-(trifluoromethyl)-4,5,6,7-tetrahydroindazol-7-yl]oxy]bicyclo[1.1.1]pentane-1-carboxylic acid]"
10,B (RLU 3.5 μM-5.0 μM),C[C@H](Oc1cccc(-n2nc(C(F)(F)F)c3c2C(Oc2ccc(C(=O)O)cc2)CCC3)c1)c1ccc2c(c1)OC(F)(F)O2 (stereo partly drawn) [Example 29]
11,B (RLU 3.5 μM-5.0 μM),C[C@@H](Oc1cccc(-n2nc(C(F)(F)F)c3c2C(Oc2ccc(C(=O)O)cc2)CCC3)c1)c1cc2c(cn1)OC(F)(F)O2 (stereo partly drawn) [Example 30]
12,C (RLU 0.0 μM-3.5 μM),C[C@H](Oc1cccc(-n2nc(C(F)(F)F)c3c2C(Oc2ccc(C(=O)O)cc2)CCC3)c1)c1cc2c(cn1)OC(F)(F)O2 (stereo partly drawn) [Example 31]
13,B (RLU 3.5 μM-5.0 μM),"C[C@@H](Oc1cccc(-n2nc(C(F)(F)F)c3c2C(Oc2ccc(C(=O)O)cc2)CCC3)c1)c1cc2c(cc1F)OC(F)(F)O2 (stereo partly drawn) [Example 32, 4-[[1-[3-[(1R)-1-(2,2,6-trifluoro-1,3-benzodioxol-5-yl)ethoxy]phenyl]-3-(trifluoromethyl)-4,5,6,7-tetrahydroindazol-7-yl]oxy]benzoic acid]"
14,B (RLU 3.5 μM-5.0 μM),"C[C@H](Oc1cccc(-n2nc(C(F)(F)F)c3c2C(Oc2ccc(C(=O)O)cc2)CCC3)c1)c1cc2c(cc1F)OC(F)(F)O2 (stereo partly drawn) [Example 33, 4-[[1-[3-[(1S)-1-(2,2,6-trifluoro-1,3-benzodioxol-5-yl)ethoxy]phenyl]-3-(trifluoromethyl)-4,5,6,7-tetrahydroindazol-7-yl]oxy]benzoic acid]"
15,B (RLU 3.5 μM-5.0 μM),Cc1cc(OC2CCCc3c(C(F)(F)F)nn(-c4cccc(O[C@@H](C)c5cc6c(cc5F)OC(F)(F)O6)c4)c32)ccc1C(=O)O (stereo partly drawn) [Example 35]
16,A (RLU 5.0 μM-10 μM),C[C@@H](Oc1cccc(-n2nc(C(F)(F)F)c3c2C(O[C@H]2CC[C@H](C(=O)O)CC2)CCC3)c1)c1ccc2c(c1)OC(F)(F)O2 (stereo partly drawn) [Example 38]
